From PMC10960472 (Veterinary Research, 2024) come the findings set out here.

Converted amounts (≈) assume the structure as drawn. Read-outs that look alike come from different tables or passages of the source. No end group written: not given here.

For test [1], the system named is E. coli PCN033.
In test [2] the test system is E. coli RS218. Briefly: microbe, parasite or virus in culture. The conditions noted are these: Escherichia coli; for MBC: RS218, read-out: MBC, E. coli RS218, colony counting on LB agar from wells without visible growth; for MIC: RS218, read-out: MIC, E. coli RS218, MHB microdilution, 16-20 h at 37 °C, triplicate, lowest concentration inhibiting visual growth. On the technique in general: In broth dilution the organism is exposed to a series of concentrations in liquid medium.

Test [3] deals with E. coli RS218.
For test [4], the system named is PCN033. Put plainly: Time-kill curve assay. It counts as cell-based, Escherichia coli. The settings on record: sub-MBC: PMAP-36 1/4 MBC, tetracycline 1/16 MBC, gentamicin 1/8 MBC, 37 °C.
Test [5] relates to E. coli PCN033. Briefly: microbe, parasite or virus in culture. The settings on record: Escherichia coli; for MBC: PCN033, read-out: MBC, E. coli PCN033, colony counting on LB agar from wells without visible growth; for MIC: PCN033, read-out: MIC, E. coli PCN033, MHB microdilution, 16-20 h at 37 °C, triplicate, lowest concentration inhibiting visual growth.
The test system of test [6] is PCN033. Put plainly: Scanning electron microscopy of treated bacteria. The format is cell-based, Escherichia coli. The conditions noted are these: tetracycline 1/16 MBC, PMAP-36 1/4 MBC, alone or combined, MHB 37 °C.
The subject of a further test is PCN033 and RS218. Put plainly: MIC and MBC, summary over both strains. The format is cell-based. The settings on record: Escherichia coli; for MBC: read-out: MBCs against PCN033 and RS218; for MIC: read-out: MICs against PCN033 and RS218.
Test [7] relates to E. coli PCN033. Briefly: Checkerboard assay, fractional bactericidal concentration index. It counts as cell-based, Escherichia coli. The settings on record: PMAP-36 with tetracycline, against multidrug-resistant porcine ExPEC.
Test [8] concerns PCN033. Briefly: Mouse model of systemic infection with PCN033. The format is in vivo. The conditions noted are these: C57BL/6 mice, 1 × 10^7 CFU PCN033 i.p., 30 mg/kg tetracycline i.p. 2 h after infection, n = 10/group.
Experimental: Female C57BL/6 mice (6–8 weeks old) were obtained from Chongqing Lepitt Biotechnology Co., Ltd. This study was approved by the Institutional Animal Care and Use Committee (IACUC) of Southwest University, Chongqing, China (IACUC-20221022-18). […] Afterwards, different assays were performed as described below.
For the generation of survival curves, mice (n = 10/group) were monitored every 6 h until 72 h post-infection. Statistical analysis was conducted by the log rank (Mantel‒Cox) test in GraphPad Prism 8.0 software.
Mice (n = 5/group) were euthanized at 12 h post-infection. Then, organs (spleen, liver, and lung), blood and peritoneal lavage fluid (PLF) were collected and homogenized to determine the bacterial load via serial tenfold dilutions, plating on LB agar plates, and incubation at 37 °C overnight.
For histopathological observation, mice (n = 3/group) were euthanized at 12 h post-infection. Then, the lung tissues were fixed with 10% formaldehyde for over one week and embedded in paraffin for histological analysis.
For cytokine detection, the mice (n = 3/group) were euthanized at 12 h post-infection. Then, the expression of inflammatory cytokines (IL-1α, IL-1β, IL-6, IL-12 and TNF-α) in the lungs, liver, spleen, and PLF and the expression of chemokines (CXCL1 and CXCL2) in the PLF were determined using ELISA kits. […]
Test [9] has as its system PCN033. The format is cell-based, Escherichia coli.
In test [10] the test system is monocytes and macrophages in the PLF. Put plainly: Flow cytometry of immune cells in peritoneal lavage fluid of infected mice. The format is in vivo, mouse. The settings on record: 12 h post-infection, flow cytometry F4/80 and Gr-1, n = 3/group. On the technique in general: A flow cytometer gives signals particle by particle.
Experimental: Mice were infected and treated with the test compounds as described above. After 12 h of infection, PLF was collected with 2 mL of sterile PBS, and the cells were centrifuged at 1800 rpm for 3 min. Then, the cells were blocked with 1 mL of 2% bovine serum albumin (BSA) in PBS for 30 min. An anti-mouse CD16/32 antibody (1:50) (BioLegend, CA, USA) was used to block nonspecific antibody binding in 0.5% BSA buffer for 30 min at 4 °C. Next, the cells were stained with PE-conjugated anti-mouse F4/80 antibody (1:50) (BioLegend, CA, USA) and FITC-conjugated anti-mouse Ly-6G/Ly-6C (Gr-1) antibody (1:200) (BioLegend, CA, USA) in 0.5% BSA for 30 min at 4 °C. Afterwards, the cells were washed twice with 150 μL of 2% BSA and analysed using flow cytometry.
[11] abbreviates: MHB microdilution, 16-20 h at 37 °C, triplicate, lowest concentration inhibiting visual growth.
Where [12] appears, read: colony counting on LB agar from wells without visible growth.

For `CC1(C)S[C@@H]2[C@H](NC(=O)[C@H](N)c3ccccc3)C(=O)N2[C@H]1C(=O)O` [Ampicillin, ampicillin], the “MIC, E. coli PCN033” value in the test with E. coli PCN033 [1] (setting [11]) is reported as 20,480 μM; in the test with E. coli PCN033 [1] (MHB microdilution, 16-20 h at 37 °C, triplicate, lowest concentration inhibiting visual growth, listed as ampicillin), “greater than 160 μM”. The “MBC, E. coli PCN033” value against E. coli PCN033 [1] (setting [12]) is reported as 40,960 μM; against E. coli PCN033 [1] (colony counting on LB agar from wells without visible growth, listed as ampicillin), “greater than 1280 μM”. Also, the MBC in the test with E. coli RS218 [2] was in the range of 5 to 20 µM (≈ 1.75 to 6.99 µg/mL). Besides, the MIC in the test with E. coli RS218 [2] is 2.5 to 10 µM (≈ 0.874 to 3.49 µg/mL). Also, the “MIC, E. coli RS218” value against E. coli RS218 [3] (setting [11]) was determined as 5 µM (≈ 1.75 µg/mL). Moreover, the “MBC, E. coli RS218” value in the test on E. coli RS218 [3] (setting [12]) amounted to 10 µM (≈ 3.49 µg/mL).

Take `CNC(C)C1CCC(N)C(OC2C(N)CC(N)C(OC3OCC(C)(O)C(NC)C3O)C2O)O1` (stereo not shown) [Gentamicin, gentamicin]: the “bactericidal activity within 120 min, agent alone” value in the test with PCN033 [4] is “did not show obvious bactericidal activity”. Moreover, the “MIC, E. coli PCN033” value against E. coli PCN033 [1] (setting [11]) was 320 µM (≈ 153 µg/mL). Besides, in the test with E. coli PCN033 [1] (setting [12]), the “MBC, E. coli PCN033” value worked out at 1280 µM (≈ 611 µg/mL). Further, in the test with E. coli RS218 [2], the MBC fell in the range of 5 to 20 µM (≈ 2.39 to 9.55 µg/mL) and the MIC fell in the range of 2.5 to 10 µM (≈ 1.19 to 4.78 µg/mL). In the test on E. coli PCN033 [5], the MBC was greater than 1280 µM and the MIC is greater than 160 µM. Besides, in the test with E. coli RS218 [3] (setting [11]), the “MIC, E. coli RS218” value came to 2.5 µM (≈ 1.19 µg/mL). Besides, the “MBC, E. coli RS218” value against E. coli RS218 [3] (setting [12]) was 5 µM (≈ 2.39 µg/mL).

As to `CN(C)[C@@H]1C(O)=C(C(N)=O)C(=O)[C@@]2(O)C(O)=C3C(=O)c4c(O)cccc4[C@@](C)(O)[C@H]3C[C@@H]12` [Tetracycline, tetracycline], in the test with PCN033 [6], the “cell morphology under SEM” value was “slight cell shrinkage”. In addition, the MBC with PCN033 and RS218 was 5 to 320 µM (≈ 2.22 to 142 µg/mL); with E. coli RS218 [2] it was 5 µM (≈ 2.22 µg/mL); in the test on E. coli PCN033 [5], 160 µM (≈ 71.1 µg/mL). The MIC is 2.5 to 320 µM (≈ 1.11 to 142 µg/mL) in the test on PCN033 and RS218; 2.5 µM (≈ 1.11 µg/mL) in the test on E. coli RS218 [2]; 160 µM (≈ 71.1 µg/mL) with E. coli PCN033 [5]. For the same compound, in the test on E. coli PCN033 [7], the “decrease of MBC when used in combination” value was determined as 16 fold. In addition, the “time within which all treated mice died” value in the test on PCN033 [8] is no more than 24 h. Besides, the “increase of the MIC of tetracycline, 10th generation” value in the test with PCN033 [9] is listed as 1.5 fold. Besides, in the test with PCN033 [9] (PCN033 grown at sub-MIC: tetracycline 1/4 MIC, PMAP-36 1/4 MIC, or 1/8 MIC + 1/8 MIC, normalised to first generation), the “change of the MIC of tetracycline after 30 generations” value is listed as “threefold”. Besides, the “number of monocytes and macrophages in the PLF” value in [10] was “only slightly increased”.

In the case of RFGRFLRKIRRFRPKVTITIQGSARF [CATH-2], in the test with E. coli PCN033 [1] (PCN033), the “MBC, E. coli PCN033” value was 20 µM and the “MIC, E. coli PCN033” value is 10 µM. In the test on E. coli RS218 [3] (RS218), the “MBC, E. coli RS218” value was found to be 10 µM and the “MIC, E. coli RS218” value was 5 µM.

With `[H]/N=C(/N)N[C@H]1[C@H](O)[C@@H](O)[C@H](O[C@@H]2O[C@@H](C)[C@](O)(C=O)[C@H]2O[C@@H]2O[C@@H](CO)[C@H](O)[C@@H](O)[C@@H]2NC)[C@@H](N/C(N)=N\[H])[C@@H]1O` [Streptomycin, streptomycin], in the test on E. coli RS218 [2], the MBC was greater than 41000 µM and the MIC stood at 41000 µM (≈ 23800 µg/mL). Also, in the test on E. coli PCN033 [5], the MIC was greater than 160 µM.

As to “GLLRKGGEKIGEKLKKIGQKIKNFFQKLVPQPEQ [CRAMP]”, in the test on E. coli PCN033 [1] (setting [11]), the “MIC, E. coli PCN033” value was 10 µM. Besides, the “MBC, E. coli PCN033” value with E. coli PCN033 [1] (setting [12]) worked out at 20 µM. Moreover, in the test on E. coli RS218 [3] (setting [11]), the “MIC, E. coli RS218” value amounted to 5 µM. The “MBC, E. coli RS218” value with E. coli RS218 [3] (setting [12]) came out at 20 µM.

As to RVKRFWPLVPVAINTVAAGINLYKAIRRK [CATH-3], in the test on E. coli PCN033 [1] (PCN033), the “MBC, E. coli PCN033” value is 20 µM and the “MIC, E. coli PCN033” value was found to be 10 µM. Further, in the test with E. coli RS218 [3] (RS218), the “MBC, E. coli RS218” value was 10 µM and the “MIC, E. coli RS218” value came out at 5 µM.

Regarding “GRFRRLRKKTRKRLKKIGKVLKWIPPIVGSIPLGCG [PMAP-36, porcine myeloid antimicrobial peptide 36]”, in the test on E. coli PCN033 [1] (PCN033), the “MBC, E. coli PCN033” value was 10 µM and the “MIC, E. coli PCN033” value is 2.5 µM. For the same compound, in the test on E. coli RS218 [3] (RS218), the “MBC, E. coli RS218” value stood at 5 µM and the “MIC, E. coli RS218” value came to 2.5 µM.

Take `CO/N=C(\C(=O)N[C@@H]1C(=O)N2C(C(=O)O)=C(COC(C)=O)CS[C@H]12)c1csc(N)n1` [Cefotaxime, cefotaxime]: the MBC is less than 0.625 µM with PCN033 and RS218; less than 0.625 µM in the test with E. coli RS218 [2]; less than 0.625 µM in the test on E. coli PCN033 [5]. Also, the MIC in the test with PCN033 and RS218 was less than 0.625 µM; in the test on E. coli RS218 [2] it was less than 0.625 µM; in the test on E. coli PCN033 [5], less than 0.625 µM.

As for `Cc1onc(-c2ccccc2)c1C(=O)N[C@@H]1C(=O)N2[C@@H]1SC(C)(C)[C@@H]2C(=O)O` [Oxacillin, oxacillin], the “MIC, E. coli PCN033” value in the test on E. coli PCN033 [1] (setting [11]) was 5120 µM (≈ 2060 µg/mL); in the test on E. coli PCN033 [1] (MHB microdilution, 16-20 h at 37 °C, triplicate, lowest concentration inhibiting visual growth, listed as oxacillin) it was “greater than 160 μM”. In addition, the “MBC, E. coli PCN033” value against E. coli PCN033 [1] (setting [12]) was 10,240 μM. Further, the MBC in the test with E. coli RS218 [2] worked out at 1280 µM (≈ 514 µg/mL). For the same compound, the MIC in the test on E. coli RS218 [2] was 320 µM (≈ 128 µg/mL).

As to “PIRNWWIRIWEWLNGIRKRLRQRSPFYVRGHLNVTSTPQP [CATH-B1]”, in the test with E. coli PCN033 [1] (PCN033), the “MBC, E. coli PCN033” value is greater than 40 µM and the “MIC, E. coli PCN033” value was greater than 40 µM. Further, in the test with E. coli RS218 [3] (RS218), the “MBC, E. coli RS218” value was greater than 40 µM and the “MIC, E. coli RS218” value was greater than 40 µM.

As to “RRRPRPPYLPRPRPPPFFPPRLPPRIPPGFPPRFPPRFP [PR-39]”, in the test on E. coli PCN033 [1] (PCN033), the “MBC, E. coli PCN033” value was 10 µM and the “MIC, E. coli PCN033” value was found to be 5 µM. Also, in the test with E. coli RS218 [3] (RS218), the “MBC, E. coli RS218” value came to 5 µM and the “MIC, E. coli RS218” value amounted to 2.5 µM.
